Data on 18 molecules can be found in patent US7772180B2, “Hepatitis C virus inhibitors” (Bristol-Myers Squibb Company, priority 2006, dated 2010).

Read-outs that look alike come from different tables or passages of the source. Bounds are passed on as bounds.

The target of assay [1] is T1, HCV NS3/4A protease complex, BMS strain (UniProt P27958, species not given/STRAIN_BMS).
T1 construct: other: NS3/4A BMS strain; activity range class; numeric values, unit not given; said of H77 and J4L6S; fused on or other part: A three-lysine solubilising tail at the C-terminus of NS4A; A His tag is implied by the pET21b vector and Ni-NTA purification; Both are printed for the H77 and J4L6S constructs and apply to BMS by inference
Kind of assay: FRET peptide assay to monitor HCV NS3/4A proteolytic activity (BMS strain). The settings on record: read-out: HCV Protease (IC50), NS3/4A BMS strain. The class given is biochemical, Hepatitis C virus (genotype 1a). The procedure, abridged: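 Inhibition measured by real-time fluorescence increase as the protease cleaves RET S1 FRET depsipeptide (2 μM final). Enzyme: >90% pure BMS-strain (1a) NS3/4A at 2-3 nM final, or 300 pM with 50 μg/ml BSA for potent compounds. Buffer: 50 mM HEPES pH 7.5, 0.15 M NaCl, 0.1% Triton, 15% glycerol, 10 mM βME.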

For assay [2], the system named is HCV replicon (strain 1b) in HUH-7 cells. Kind of assay: HCV replicon FRET assay. The class given is cell-based, Hepatitis C virus. (Replicon systems follow genome replication, usually without infectious particles.)
Where [3] appears, read: Hepatitis C virus, Huh-7, read-out: HCV Pro Replicon (EC50), HCV replicon cell assay, numeric values, unit inferred.
Where [4] appears, read: Hepatitis C virus, Huh-7, read-out: HCV Pro Replicon (EC50), HCV replicon cell assay, activity range class.
The mark [5] stands for this setting: read-out: HCV Pro Replicon (EC50), HCV replicon cell assay, activity range class.

By IC50 is commonly meant the concentration that inhibits the measured activity by half. The term EC50 denotes the concentration at which the effect is half-maximal.

T1 sequence (P27958 1027-1657, change not shown, one chain of several): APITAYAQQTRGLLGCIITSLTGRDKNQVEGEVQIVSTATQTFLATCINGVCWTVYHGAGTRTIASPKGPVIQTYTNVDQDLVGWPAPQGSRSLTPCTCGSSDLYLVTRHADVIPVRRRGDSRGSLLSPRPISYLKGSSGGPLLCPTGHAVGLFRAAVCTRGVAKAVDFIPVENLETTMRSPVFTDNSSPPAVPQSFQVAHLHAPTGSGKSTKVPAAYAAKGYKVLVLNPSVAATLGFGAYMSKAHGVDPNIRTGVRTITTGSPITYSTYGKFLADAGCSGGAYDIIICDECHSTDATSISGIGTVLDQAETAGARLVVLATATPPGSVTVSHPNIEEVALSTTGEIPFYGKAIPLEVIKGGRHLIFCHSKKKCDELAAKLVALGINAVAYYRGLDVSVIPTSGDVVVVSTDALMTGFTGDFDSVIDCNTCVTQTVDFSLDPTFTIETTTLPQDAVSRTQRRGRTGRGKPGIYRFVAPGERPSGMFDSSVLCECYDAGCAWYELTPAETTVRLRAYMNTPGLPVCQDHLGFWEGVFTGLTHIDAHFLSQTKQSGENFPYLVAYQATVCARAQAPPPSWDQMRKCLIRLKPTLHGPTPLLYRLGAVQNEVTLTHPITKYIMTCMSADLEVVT

With `C=C[C@@H]1C[C@]1(NC(=O)[C@@H]1C[C@@H](Oc2nccc3cc(OC)ccc23)CN1C(=O)[C@H](Nc1cc(C)cc(C)n1)C(C)C)C(=O)NS(=O)(=O)C1CC1` [Compound 1B, N-(4,6-dimethyl-2-pyridinyl)-D-valyl-(4R)—N-((1R,2S)-1-((cyclopropylsulfonyl)carbamoyl)-2-vinylcyclopropyl)-4-((6-methoxy-1-isoquinolinyl)oxy)-L-prolinamide], in assay [1] (numeric values, unit inferred), the IC50 turned out to be 289 nM. The concentration for a half-maximal effect (EC50) in assay [2] (setting [3]) amounted to 1640 nM.

`C=C[C@@H]1C[C@]1(NC(=O)[C@@H]1C[C@@H](Oc2ncc(OC)c3ccc(Cl)cc23)CN1C(=O)[C@H](Nc1cccc(C(=O)OC(C)(C)C)c1)C(C)(C)C)C(=O)NS(=O)(=O)C1CC1` [210 second isomer, N-(3-(tert-butoxycarbonyl)phenyl)-3-methyl-D-valyl-(4R)-4-((7-chloro-4-methoxy-1-isoquinolinyl)oxy)-N-((1R,2S)-1-((cyclopropylsulfonyl)carbamoyl)-2-vinylcyclopropyl)-L-prolinamide]: the IC50 in assay [1] (activity range class) is 20 to 200 nM. In addition, the EC50 in assay [2] (setting [4]) was 100 to 1000 nM.

As for `C=C[C@@H]1C[C@]1(NC(=O)[C@@H]1C[C@@H](Oc2nc(OC)cc3cc(OC)ccc23)CN1C(=O)C(Nc1ccccc1)C(C)(C)C)C(=O)NS(=O)(=O)C1CC1` (single isomer, unassigned) [20 second isomer], in assay [1] (activity range class), the IC50 fell in the range of 20 to 200 nM. Besides, in assay [2] (setting [5]), the concentration giving a half-maximal response (EC50) was in the range of 100 to 1000 nM.

Take `C=C[C@@H]1C[C@]1(NC(=O)[C@@H]1C[C@@H](Oc2ncc(OC)c3ccc(Cl)cc23)CN1C(=O)C(Nc1ccc(C)nc1)C(C)(C)C)C(=O)NS(=O)(=O)C1CC1` (single isomer, unassigned) [Compound 26B]: the IC50 in assay [1] (numeric values, unit inferred) came to 1300 nM. The EC50 in assay [2] (setting [3]) was 3190 nM.

`C=C[C@@H]1C[C@]1(NC(=O)[C@@H]1C[C@@H](Oc2ncc(OC)c3ccc(Cl)cc23)CN1C(=O)[C@@H](Nc1ccc(C(=O)OC(C)(C)C)cc1)C(C)(C)C)C(=O)NS(=O)(=O)C1CC1` [204 first isomer, tert-butyl 4-((S)-1-((2S,4R)-4-(7-chloro-4-methoxyisoquinolin-1-yloxy)-2-((1R,2S)-1-(cyclopropylsulfonylcarbamoyl)-2-vinylcyclopropylcarbamoyl)pyrrolidin-1-yl)-3,3-dimethyl-1-oxobutan-2-ylamino)benzoate]: in assay [1] (activity range class), the IC50 was 0.6 to 20 nM. In addition, in assay [2] (setting [5]), the EC50 lay in the range of 3 to 100 nM.

With `C=C[C@@H]1C[C@]1(NC(=O)[C@@H]1C[C@@H](Oc2ncc(OC)c3ccc(Cl)cc23)CN1C(=O)C(Nc1cncc(C(F)(F)F)c1)C(C)(C)C)C(=O)NS(=O)(=O)C1CC1` (single isomer, unassigned) [27 second isomer], the IC50 in assay [1] (activity range class) was 20 to 200 nM. Besides, in assay [2] (setting [4]), the EC50 lay within 3 to 100 nM.

For the molecule `C=C[C@@H]1C[C@]1(NC(=O)[C@@H]1C[C@@H](Oc2nccc3cc(OC)ccc23)CN1C(=O)C(Nc1ccc(OC)nc1)C(C)(C)C)C(=O)NS(=O)(=O)C1CC1` (single isomer, unassigned) [407 first isomer], the IC50 in assay [1] (activity range class) was in the range of 0.6 to 20 nM. In addition, in assay [2] (setting [4]), the EC50 fell in the range of 100 to 1000 nM.

On to `C=C[C@@H]1C[C@]1(NC(=O)[C@@H]1C[C@@H](Oc2ncc(OC)c3ccc(Cl)cc23)CN1C(=O)[C@@H](Nc1cccc(S(=O)(=O)N(C)C)c1)C(C)(C)C)C(=O)NS(=O)(=O)C1CC1` [219 first isomer, N-(3-(dimethylsulfamoyl)phenyl)-3-methyl-L-valyl-(4R)-4-((7-chloro-4-methoxy-1-isoquinolinyl)oxy)-N-((1R,2S)-1-((cyclopropylsulfonyl)carbamoyl)-2-vinylcyclopropyl)-L-prolinamide], for which, in assay [1] (activity range class), the half-maximal inhibitory concentration (IC50) is > 200 nM. In addition, in assay [2] (setting [4]), the EC50 was > 1000 nM.

As to `C=C[C@@H]1C[C@]1(NC(=O)[C@@H]1C[C@@H](Oc2ncc(OC)c3ccc(Cl)cc23)CN1C(=O)C(Nc1cc(C)c([N+](=O)[O-])cn1)C(C)(C)C)C(=O)NS(=O)(=O)C1CC1` (stereo partly drawn) [Compound 23, 3-methyl-N-(4-methyl-5-nitro-2-pyridinyl)valyl-(4R)-4-((7-chloro-4-methoxy-1-isoquinolinyl)oxy)-N-((1R,2S)-1-((cyclopropylsulfonl)carbamoyl)-2-vinylcyclopropyl)-L-prolinamide], the IC50 in assay [1] (activity range class) was 0.6 to 20 nM. Further, the EC50 in assay [2] (setting [4]) lay in the range of 3 to 100 nM.

With `C=C[C@@H]1C[C@]1(NC(=O)[C@@H]1C[C@@H](Oc2ncc(OC)c3ccc(Cl)cc23)CN1C(=O)C(Nc1cccc(C(=O)NC)c1)C(C)(C)C)C(=O)NS(=O)(=O)C1CC1` (stereo partly drawn) [Compound 202A], in assay [1] (activity range class), the IC50 is 0.6 to 20 nM. The EC50 in assay [2] (setting [4]) lay within 3 to 100 nM.

In the case of `C=C[C@@H]1C[C@]1(NC(=O)[C@@H]1C[C@@H](Oc2ncc(OC)c3ccc(Cl)cc23)CN1C(=O)[C@H](Nc1ccc(S(N)(=O)=O)cc1)C(C)(C)C)C(=O)NS(=O)(=O)C1CC1` [Compound 215B, 3-methyl-N-(4-sulfamoylphenyl)-D-valyl-(4R)-4-((7-chloro-4-methoxy-1-isoquinolinyl)oxy)-N-((1R,2S)-1-((cyclopropylsulfonyl)carbamoyl)-2-vinylcyclopropyl)-L-prolinamide], in assay [1] (numeric values, unit inferred), the IC50 was determined as 830 nM. Further, the EC50 in assay [2] (setting [3]) stood at 5490 nM.

On to `C=C[C@@H]1C[C@]1(NC(=O)[C@@H]1C[C@@H](Oc2nccc3cc(OC)ccc23)CN1C(=O)[C@@H](Nc1nc(OC)nc(OC)n1)C(C)(C)C)C(=O)NS(=O)(=O)C1CC1` [Compound 3, N-(4,6-dimethoxy-1,3,5-triazin-2-yl)-3-methyl-L-valyl-(4R)—N-((1R,2S)-1-((cyclopropylsulfonyl)carbamoyl)-2-vinylcyclopropyl)-4-((6-methoxy-1-isoquinolinyl)oxy)-L-prolinamide], for which the IC50 in assay [1] (activity range class) is 0.6 to 20 nM. Moreover, the EC50 in assay [2] (setting [4]) was > 1000 nM.

As for `C=C[C@@H]1C[C@]1(NC(=O)[C@@H]1C[C@@H](Oc2ncc(OC)c3ccc(Cl)cc23)CN1C(=O)[C@@H](Nc1cccc(S(N)(=O)=O)c1)C(C)(C)C)C(=O)NS(=O)(=O)C1CC1` [207 first isomer, 3-methyl-N-(3-sulfamoylphenyl)-L-valyl-(4R)-4-((7-chloro-4-methoxy-1-isoquinolinyl)oxy)-N-((1R,2S)-1-((cyclopropylsulfonyl)carbamoyl)-2-vinylcyclopropyl)-L-prolinamide], in assay [1] (activity range class), the IC50 lay within 0.6 to 20 nM. Also, in assay [2] (setting [4]), the EC50 lay in the range of 3 to 100 nM.

With `C=CC1CC1(NC(=O)C1CC(Oc2ncc(OC)c3ccc(Cl)cc23)CN1C(=O)C(Nc1ccccc1)C(C)(C)C)C(=O)NS(=O)(=O)C1CC1` (single isomer, unassigned; isomer 3) [213 second isomer], in assay [1] (activity range class), the concentration for half-maximal inhibition (IC50) lay in the range of 0.6 to 20 nM. For the same molecule, the EC50 in assay [2] (setting [5]) lay within 3 to 100 nM.

Consider `C=C[C@@H]1C[C@]1(NC(=O)[C@@H]1C[C@@H](Oc2ncc(OC)c3ccc(Cl)cc23)CN1C(=O)C(Nc1cccc(C)n1)C(C)(C)C)C(=O)NS(=O)(=O)C1CC1` (single isomer, unassigned) [28 second isomer], for which the IC50 in assay [1] (activity range class) lay within 20 to 200 nM. The EC50 in assay [2] (setting [5]) was in the range of 100 to 1000 nM.

Take `C=CCCCCCC(Nc1ccc(OC)nc1)C(=O)N1C[C@H](Oc2ncc(OC)c3ccc(Cl)cc23)C[C@H]1C(=O)N[C@]1(C(=O)NS(=O)(=O)C2CC2)C[C@H]1C=C` (stereo partly drawn) [Compound 410]: the IC50 in assay [1] (activity range class) was > 200 nM. Besides, the EC50 in assay [2] (setting [5]) fell in the range of 3 to 100 nM.

Turning to `C=C[C@@H]1C[C@]1(NC(=O)[C@@H]1C[C@@H](Oc2ncc(OC)c3ccc(Cl)cc23)CN1C(=O)C(Nc1cncc(C(F)(F)F)c1)C(C)(C)C)C(=O)NS(=O)(=O)C1CC1` (single isomer, unassigned) [Compound 27A], the half-maximal inhibitory concentration (IC50) in assay [1] (numeric values, unit inferred) came out at 3 nM. Also, the EC50 in assay [2] (setting [3]) was 4.09 nM.

Consider `C=C[C@@H]1C[C@]1(NC(=O)[C@@H]1C[C@@H](Oc2nccc3cc(OC)ccc23)CN1C(=O)[C@@H](Nc1ccccc1)C(C)(C)C)C(=O)NS(=O)(=O)C1CC1` [15 first isomer, 3-methyl-N-phenyl-L-valyl-(4R)—N-((1R,2S)-1-((cyclopropylsulfonyl)carbamoyl)-2-vinylcyclopropyl)-4-((6-methoxy-1-isoquinolinyl)oxy)-L-prolinamide], for which the IC50 in assay [1] (activity range class) lay within 0.6 to 20 nM. In assay [2] (setting [4]), the EC50 lay in the range of 3 to 100 nM.
